Test [1] has as its target T1, Apoptosis regulator Bcl-2 (Homo sapiens, UniProt P10415). The test can be described thus: Inhibition of Bcl-2 by fluorescence polarization assay. (Fluorescence polarisation rises when a labelled molecule tumbles more slowly, as on binding a larger partner.)
The target in test [2] is T1, Apoptosis regulator Bcl-2. Description: Binding affinity to Bcl-2 by NMR titration assay.
The target of a further test is Bcl-2-like protein 1 (Homo sapiens, UniProt Q07817). Description: Binding affinity to Bcl-XL by NMR titration assay.
Sequence of Bcl-2-like protein 1 (Q07817 whole entry): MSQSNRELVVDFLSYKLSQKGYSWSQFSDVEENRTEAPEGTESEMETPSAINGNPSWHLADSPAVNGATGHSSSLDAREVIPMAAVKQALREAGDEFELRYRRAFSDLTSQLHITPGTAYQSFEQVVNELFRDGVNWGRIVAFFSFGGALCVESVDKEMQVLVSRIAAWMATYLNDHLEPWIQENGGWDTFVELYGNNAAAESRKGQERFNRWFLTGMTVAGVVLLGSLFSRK
Test [3] concerns the target T1, Apoptosis regulator Bcl-2. The test can be described thus: Binding affinity to Bcl-2 by NMR titration assay in presence of 500 uM 1,1-bis(4-chlorophenyl)-3-(dimethylamino)propan-1-ol.
Test [4] in a line: Selectivity ratio of Kd for Bcl-XL to Kd for Bcl-2.

T1 sequence (P10415 whole entry): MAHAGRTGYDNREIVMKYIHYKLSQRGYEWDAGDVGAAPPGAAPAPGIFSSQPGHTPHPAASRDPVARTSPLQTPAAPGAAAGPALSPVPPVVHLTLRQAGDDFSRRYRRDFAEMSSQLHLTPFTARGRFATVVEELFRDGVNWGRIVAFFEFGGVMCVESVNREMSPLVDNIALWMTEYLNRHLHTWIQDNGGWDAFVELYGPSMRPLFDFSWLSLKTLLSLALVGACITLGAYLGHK

Consider `CN(C)CCCC(O)(c1ccccc1)c1cccc(OCCc2ccc(-c3ccc(C(=O)O)cc3)cc2)c1` (stereo not drawn), for which the Ki – broadly, a measure of affinity in units of concentration, obtained from inhibition or displacement – in test [1] came out at 4.6 µM.

`CC(C)(C)c1ccc(C(O)(CCN2CCOCC2)c2ccc(Cl)c(CCOc3ccc(-c4ccc(C(=O)O)cc4)cc3)c2)cc1` (stereo not drawn) had a Ki in test [1] of 0.11 µM.

`CN(C)CCCC(O)(c1ccccc1)c1cccc(OCc2ccc(-c3ccc(C(=O)O)cc3)cc2)c1` (stereo not drawn) registered an inhibitory constant (Ki) in test [1] of 5.2 µM.

`CN(C)CCCC(O)(c1ccccc1)c1ccc(OCc2cccc(-c3ccc(C(=O)O)cc3)c2)cc1` (stereo not drawn) yielded an inhibition constant Ki in test [1] of 5.8 µM.

`O=C(O)c1ccc(-c2ccc(OCCc3cc(C(O)(CCN4CCOCC4)c4ccc(Br)cc4)ccc3Cl)cc2)cc1` (stereo not drawn) came in with a Ki in test [1] of 0.2 µM.

`CN(C)CCCC(O)(c1ccccc1)c1cccc(CCOc2ccc(-c3ccc(C(=O)O)cc3)cc2)c1` (stereo not drawn) came in with an inhibitory constant (Ki) in test [1] of 3.4 µM.

In the case of `CN1CCN(C(c2ccccc2)c2ccc(Cl)cc2)CC1` (stereo not drawn) [CHLORCYCLIZINE], the figures for the dissociation constant (Kd) (in test [2]; at Bcl-2-like protein 1) were 60 µM and 700 µM, respectively.

In turn, `CN(C)CCCC(O)(c1ccccc1)c1ccc(OCc2ccc(-c3ccc(C(=O)O)cc3)cc2)cc1` (stereo not drawn) had a Ki in test [1] of 83 µM.

Turning to `CN(C)CCCC(O)(c1ccccc1)c1ccc(OCCc2cccc(-c3ccc(C(=O)O)cc3)c2)cc1` (stereo not drawn), the inhibitory constant (Ki) in test [1] worked out at 8 µM.

In the case of `O=C(O)c1ccc(-c2ccc(OCCc3cc(C(O)(CCN4CCOCC4)c4ccc(Cl)cc4)ccc3Cl)cc2)cc1` (stereo not drawn), in test [1], the Ki amounted to 0.22 µM.

In test [1], `CN(C)CCCC(O)(c1ccccc1)c1cccc(OCCc2cccc(-c3ccc(C(=O)O)cc3)c2)c1` (stereo not drawn) had an inhibition constant (Ki) of 5 µM.

In the case of `CCc1cccc(-c2ccc(C(=O)O)cc2)c1`, the Kd – broadly, a measure of binding affinity in units of concentration – in test [2] was 100 µM; in test [3], 20 µM.

`CN(C)CCCC(O)(c1ccccc1)c1cccc(OCCOc2ccc(-c3ccc(C(=O)O)cc3)cc2)c1` (stereo not drawn) registered an inhibition constant Ki in test [1] of over 1 µM.

`CN(C)CCCC(O)(c1ccccc1)c1cccc(OCc2cccc(-c3ccc(C(=O)O)cc3)c2)c1` (stereo not drawn) yielded a Ki in test [1] of 20 µM.

For `CC(C)(C)c1ccc(C(O)(CCN2CCCC2)c2ccc(Cl)c(CCOc3ccc(-c4ccc(C(=O)O)cc4)cc3)c2)cc1` (stereo not drawn), the Ki in test [1] was found to be 0.04 µM. In test [4], the Selectivity ratio turned out to be 1000.

In test [1], `CC(O)(c1ccc(Cl)cc1)c1ccc(Cl)c(CCOc2ccc(-c3ccc(C(=O)O)cc3)cc2)c1` (stereo not drawn) returned a Ki of 0.46 µM.

In the case of `CCc1ccc(-c2ccc(C(=O)O)cc2)cc1`, the results for the Kd in test [2] and in test [3] were 300 µM and over 1000 µM, respectively.

The molecule `CN(C)CCCC(O)(c1ccccc1)c1ccc(OCCOc2ccc(-c3ccc(C(=O)O)cc3)cc2)cc1` (stereo not drawn) came in with a Ki in test [1] of over 1 µM.

Regarding `NC[C@](O)(c1ccccc1)c1ccc(F)cc1Cl`, in test [2], the affinity, expressed as Kd, was 250 µM.

On to `O=C(O)c1ccc(-c2ccc(F)cc2)cc1`, for which the Kd in test [2] came to 400 µM; in test [3], 430 µM.

For the molecule `CN(C)CCCC(O)(c1ccc(Cl)cc1)c1ccc(Cl)cc1`, the figures for the dissociation constant (Kd) (in test [2]; at Bcl-2-like protein 1) were 20 µM and 450 µM, respectively. In test [4], the Selectivity ratio came to 20.

`CN(C)CCCC(O)(c1ccccc1)c1ccc(OCCc2ccc(-c3ccc(C(=O)O)cc3)cc2)cc1` (stereo not drawn) showed an inhibitory constant (Ki) in test [1] of 12 µM.

Take `CN(C)CCCC(O)(c1ccccc1)c1ccccc1`: the Kd in test [2] was 200 µM; on Bcl-2-like protein 1, 5000 µM.

In the case of `CN(C)CCC[C@@](O)(c1ccccc1)c1ccc(Cl)cc1`, the Kd amounted to 80 µM in test [2] and 500 µM on Bcl-2-like protein 1.

For the origin of these results see ChEMBL document CHEMBL1268906, “Discovery of a potent and selective Bcl-2 inhibitor using SAR by NMR” (Bioorg Med Chem Lett, 2010).
